# Measurements as given in patent US20190343817A1, “METHOD OF TREATING PAIN” (VERTEX PHARMACEUTICALS INCORPORATED, priority 2018, published 2019).
# Columns and labels:
# [1] = test system: patients with chronic pain caused by small fiber neuropathy; assay: Efficacy of Compound 1 for pain caused by small fiber neuropathy (randomized, double-blind, placebo-controlled, 6-week study); type: in vivo, human
# Method: A randomized, double-blind, placebo-controlled, 6-week study that evaluated treatment with Compound 1 (Treatment Arm) or placebo (Placebo Arm) in patients with chronic pain caused by small fiber neuropathy was conducted.
# Males and females between the ages of 18 and 80 years, inclusive, with small fiber neuropathy.
# Compound 1 was administered orally in 250 mg capsules, prepared as described in Example 2.
# The study included a 7-day run-in period, followed a 6-week treatment period. The subjects were randomized to a Placebo Arm (43 subjects) and a Treatment Arm (46 subjects) between the run-in period and the treatment period.
# During the run-in period, subjects reported their average pain and sleep interference to establish a baseline NRS pain score and DSIS score.
# During the treatment period, Compound 1 was administered to the subjects in the Treatment Arm every 24 hours (q24 h) in a dose of 1250 mg. Subjects in the Placebo Arm received placebo capsules.
# Pain intensity was evaluated using an 11-point NRS. The 11-point scale ranged from 0 (no pain) to 10 (worst imaginable pain). From Day −7 through Week 6, subjects reported their average daily pain during the last 24 hours on the NRS via electronic diary.
# Subjects reported pain interference with sleep using an 11-point scale ranging from 0 (none) to 10 (severe). The DSIS score was reported each morning in an electronic diary.
# Subjects' impressions of their overall health status were reported on a 7-point scale from 1 (very much improved) to 7 (very much worse) at study visits.
# NRS pain scores were averaged over weekly periods to reduce the impact on the analyses of individual high or low pain scores. The mean change from baseline in the weekly average of daily pain intensity on the 11-point NRS over the course of the treatment period for subjects in the Placebo and Treatment Arms is depicted graphically in FIG. 3. The mean change from baseline for those treated with Compound 1 compared to placebo was −1.09 (95% CI: −1.88 to −0.29) at Week 6.
# The number and percentage of subjects with ≥30% and ≥50% reduction in the weekly average of daily pain intensity on the 11-point NRS at Week 6 is reported in Table 9. The total number of subjects for determining the percentage was based on subjects who had data at Week 6.
# The total number of subjects for determining the percentage was based on subjects who had data at Week 6.
# [2] = test system: subjects with pain following bunionectomy; assay: Safety evaluations in the bunionectomy study (adverse events)
# Description: Safety evaluations included adverse events, clinical laboratory assessments, clinical evaluation of vital signs, electrocardiograms, and physical examinations.
# [3] = test system: subjects with pain following bunionectomy; assay: Efficacy of Compound 1 in subjects with pain following bunionectomy (randomized, double-blind, placebo-controlled, 3-arm study); type: in vivo, human
# Method: A randomized, double-blind, placebo-controlled, 3-arm, parallel-design study to evaluate the effect of Compound 1 on acute surgical pain was conducted. Bunionectomy is a well-established, multi-dose, surgical, acute pain model. A randomized, double-blind study design was selected to avoid observer bias and reduce symptoms or outcomes arising from the subjects' knowledge of treatment. A parallel design was considered most appropriate given the acute nature of bunionectomy surgery.
# Male and female patients between the ages of 18 and 65 years (inclusive) with pain that is ≥4 on an 11-point Numeric Pain Rating Scale (NPRS) and is moderate or severe on the Verbal Categorical Rating Scale (VRS) after bunionectomy.
# Investigational Drug: Compound 1. The investigational drug was administered orally in 250 mg capsules, prepared as described in Example 2. The investigational drug was administered every 12 hours (q12 h). The first dose was 1500 mg, and the remaining doses were 750 mg.
# The reference drug was administered orally in 5 mg/325 mg capsules, supplied as over-encapsulated 5 mg/325 mg tablets. The reference drug was administered in a dose of 5 mg/325 mg every 6 hours (q6 h).
# After a screening period, subjects received a primary unilateral first metatarsal bunionectomy repair on Day −1. A continuous popliteal sciatic block infusion (0.2% ropivacaine) was started after surgery, and remained in place until approximately 3 AM on Day 1. After removal of the popliteal sciatic block, each subject was randomized when the subject requested the first dose of study drug for pain relief and reported pain ≥4 on the NPRS and moderate or severe pain on the VRS.
# A total of 243 subjects were randomized approximately 1:1:1 to the Investigational Arm (80 subjects), Reference Arm (81 subjects), and Placebo Arm (82 subjects). To maintain the blind, all subjects received the same number of capsules in a double-dummy design.
# In the Investigational Arm, Compound 1 was administered every 12 hours (q12 h) in a first dose of 1500 mg, followed by three 750 mg doses. The final dose of Compound 1 was given 36 hours after the first dose.
# Compound 1 placebo capsules were administered every 12 hours (q12 h).
# NPRS scores are frequently used in bunionectomy studies and are recognized by the FDA as a valid pain intensity measure. On the 11-point NPRS, a score of 0 denoted no pain, and a score of 10 denoted the worst pain intensity imaginable. Subjects reported their pain on the 11-point NPRS immediately before their first dose of the study drug (baseline NPRS score) and 0.5, 1, 1.5, 2, 3, 4, 5, 6, 8, 12, 16, 20, 24, 28, 32, 36, 40, 44, and 48 hours (±5 minutes) after the first dose of study drug. Pain intensity also was recorded on the NPRS immediately before each administration of rescue medication. Pain intensity scores that were collected within 4 hours after a dose of rescue medication were taken as missing, and the missing values were imputed as the intensity recorded immediately before the administration of rescue medication.
# The primary efficacy analysis was based on an analysis of covariance (ANCOVA) model. The Least Squares (LS) mean of the time-weighted sum of the NPRS pain intensity difference, relative to baseline, from 0 to 24 hours after the first dose (“SPID24”) for each study arm is reported in Table 3. SPID24 is a standard measure of acute pain. Higher SPID24 scores represent improvements in pain relief. “Treatment difference” refers to the difference in SPID24 between the Investigational and Reference Arms, respectively, and the Placebo Arm.
# The LS mean of the time-weighted sum of the NPRS pain intensity difference, relative to baseline, from 2 to 24 hours after the first dose (“SPID22”) for each study arm is reported in Table 4. The analysis was based on an analysis of covariance (ANCOVA) model. “Treatment difference” refers to the difference in SPID22 between the Investigational and Reference Arms, respectively, and the Placebo Arm.
# [4] = Week 6, 1250 mg q24 h, n/Total of subjects with data at Week 6 given
# [5] = oral, Compound 1 1500 mg first dose then 750 mg q12 h, HB/APAP 5 mg/325 mg q6 h, ANCOVA
# [6] = relative to baseline, 24 hours after first dose, Investigational Arm 80 subjects, Reference Arm 81 subjects
smiles,measurement,setting,value
"Cc1cc(F)ccc1Oc1cc(C(F)(F)F)ccc1C(=O)Nc1ccn(COP(=O)(O)O)c(=O)c1 [Compound 1, (4-(2-(4-fluoro-2-methylphenoxy)-4-(trifluoromethyl)benzamido)-2-oxopyridin-1(2H)-yl)methyl dihydrogen phosphate]","Mean change from baseline NRS at week 6 (SE), weekly average of daily pain intensity on 11-point NRS","[1]; 1250 mg q24 h oral, 6 weeks, baseline 6.43, within-group",−2.02 (0.27)
same,Subjects categorized as improved on the PGIC assessment,[1]; [4],39.5% (17/43)
same,Subjects with ≥30% reduction in weekly average of daily pain intensity on 11-point NRS,[1]; [4],45.0% (18/40)
same,Subjects with ≥50% reduction in weekly average of daily pain intensity on 11-point NRS,[1]; [4],32.5% (13/40)
same,"Mean change from baseline in weekly average of daily pain intensity (NRS), Compound 1 compared to placebo","[1]; Week 6, 1250 mg q24 h oral",−1.09 (95% CI: −1.88 to −0.29)
same,Mean change from baseline (SE) in weekly average of Daily Sleep Interference Scale (DSIS) score,"[1]; Week 6, 1250 mg q24 h oral, baseline 5.94",−1.78 (0.28)
same,Treatment difference versus placebo in NRS pain intensity,"[1]; as early as Week 1, 1250 mg q24 h oral",greater than 1 point
same,Tolerability,"[2]; 1500 mg then 750 mg q12 h, oral",generally well tolerated
same,Gastrointestinal adverse events,[2]; percentage of arm,13%
same,Treatment difference in SPID24 versus Placebo Arm,"[3]; 0 to 24 hours after first dose, same dosing as SPID24",29.50
same,Treatment difference in SPID48 versus Placebo Arm,[3]; 0 to 48 hours after first dose,62.79
same,Treatment difference in SPID22 versus Placebo Arm,[3]; 2 to 24 hours after first dose,28.53
same,Relief of acute pain compared to placebo (SPID24),"[3]; Investigational Arm, 1500 mg then 750 mg q12 h",statistically significant relief of acute pain compared to placebo
same,Subjects who discontinued due to lack of efficacy,"[3]; bunionectomy study, of subjects assigned to the arm",7.5%
same,"SPID22 (SE): LS mean of time-weighted sum of NPRS pain intensity difference, relative to baseline, 2 to 24 hours after first dose",[3]; [5],34.95 (4.93)
same,"SPID48 (SE): LS mean of time-weighted sum of NPRS pain intensity difference, relative to baseline, 0 to 48 hours after first dose",[3]; [5],112.22 (10.57)
same,"SPID24 (SE): LS mean of time-weighted sum of NPRS pain intensity difference, relative to baseline, 0 to 24 hours after first dose","[3]; oral, Compound 1 1500 mg first dose then 750 mg q12 h, HB/APAP 5 mg/325 mg q6 h, ANCOVA, higher = better pain relief",36.14 (5.15)
same,Subjects achieving ≥30% NPRS reduction at 24 hours,[3]; [6],46 (57.5) n (%)
same,Subjects achieving ≥50% NPRS reduction at 24 hours,[3]; [6],41 (51.3) n (%)
same,Subjects achieving ≥70% NPRS reduction at 24 hours,[3]; [6],22 (27.5) n (%)
